ChEMBL document CHEMBL3045910, “Novel molluscicide against Pomacea canaliculata based on quinoa (Chenopodium quinoa) saponins” (Crop Prot, 2008)
Activity calls are given as the source filed them. The calls are words filed in the database; no cut-off is given here.

Key:
[1] = Toxicity against Oreochromis sp. under laboratory conditions assessed as mortality at 54 ppm measured after 24 hr; assay type: organism-based; settings: in vivo
[2] = Toxicity against Oreochromis sp. under laboratory conditions assessed as mortality at 40 ppm measured after 24 hr; assay type: organism-based; settings: in vivo
[3] = system: Pomacea canaliculata; test: Molluscicidal activity against Pomacea canaliculata under laboratory conditions assessed as mortality at 33 ppm after 24 hr; assay type: functional
[4] = system: Pomacea canaliculata; test: Molluscicidal activity against Pomacea canaliculata under laboratory conditions assessed as mortality at 40 ppm after 24 hr; assay type: functional
[5] = system: Pomacea canaliculata; test: Molluscicidal activity against Pomacea canaliculata under laboratory conditions assessed as mortality at 23 ppm after 24 hr; assay type: functional
[6] = system: Pomacea canaliculata; test: Molluscicidal activity against Pomacea canaliculata under laboratory conditions assessed as mortality at 17 ppm after 24 hr; assay type: functional
[7] = Toxicity against Oreochromis sp. under laboratory conditions assessed as mortality at 33 ppm measured after 24 hr; assay type: organism-based; settings: in vivo
[8] = Toxicity against Oreochromis sp. under laboratory conditions assessed as mortality at 23 ppm measured after 24 hr; assay type: organism-based; settings: in vivo
[9] = Toxicity against Oreochromis sp. under laboratory conditions assessed as mortality at 10 ppm measured after 24 hr; assay type: organism-based; settings: in vivo
[10] = Toxicity against Oreochromis sp. under laboratory conditions assessed as mortality at 17 ppm measured after 24 hr; assay type: organism-based; settings: in vivo
[11] = Toxicity against Oreochromis sp. under laboratory conditions assessed as mortality at 5 ppm measured after 24 hr; assay type: organism-based; settings: in vivo
[12] = Toxicity against Carassius auratus under laboratory conditions assessed as mortality at 54 ppm measured after 96 hr; assay type: organism-based; settings: in vivo
[13] = Toxicity against Carassius auratus under laboratory conditions assessed as mortality at 33 ppm measured after 96 hr; assay type: organism-based; settings: in vivo
[14] = Toxicity against Carassius auratus under laboratory conditions assessed as mortality at 40 ppm measured after 96 hr; assay type: organism-based; settings: in vivo
[15] = Toxicity against Carassius auratus under laboratory conditions assessed as mortality at 23 ppm measured after 96 hr; assay type: organism-based; settings: in vivo
[16] = Toxicity against Carassius auratus under laboratory conditions assessed as mortality at 17 ppm measured after 96 hr; assay type: organism-based; settings: in vivo
[17] = Toxicity against Carassius auratus under laboratory conditions assessed as mortality at 10 ppm measured after 96 hr; assay type: organism-based; settings: in vivo
[18] = Toxicity against Carassius auratus under laboratory conditions assessed as mortality at 54 ppm measured after 48 hr; assay type: organism-based; settings: in vivo
[19] = Toxicity against Carassius auratus under laboratory conditions assessed as mortality at 5 ppm measured after 96 hr; assay type: organism-based; settings: in vivo
[20] = Toxicity against Carassius auratus under laboratory conditions assessed as mortality at 40 ppm measured after 48 hr; assay type: organism-based; settings: in vivo
[21] = Toxicity against Carassius auratus under laboratory conditions assessed as mortality at 33 ppm measured after 48 hr; assay type: organism-based; settings: in vivo
[22] = Toxicity against Carassius auratus under laboratory conditions assessed as mortality at 23 ppm measured after 48 hr; assay type: organism-based; settings: in vivo
[23] = Toxicity against Carassius auratus under laboratory conditions assessed as mortality at 17 ppm measured after 48 hr; assay type: organism-based; settings: in vivo
[24] = Toxicity against Carassius auratus under laboratory conditions assessed as mortality at 5 ppm measured after 48 hr; assay type: organism-based; settings: in vivo
[25] = Toxicity against Carassius auratus under laboratory conditions assessed as mortality at 10 ppm measured after 48 hr; assay type: organism-based; settings: in vivo
[26] = Toxicity against Carassius auratus under laboratory conditions assessed as mortality at 54 ppm measured after 24 hr; assay type: organism-based; settings: in vivo
[27] = Toxicity against Carassius auratus under laboratory conditions assessed as mortality at 40 ppm measured after 24 hr; assay type: organism-based; settings: in vivo
[28] = Toxicity against Carassius auratus under laboratory conditions assessed as mortality at 33 ppm measured after 24 hr; assay type: organism-based; settings: in vivo
[29] = Toxicity against Carassius auratus under laboratory conditions assessed as mortality at 17 ppm measured after 24 hr; assay type: organism-based; settings: in vivo
[30] = Toxicity against Carassius auratus under laboratory conditions assessed as mortality at 23 ppm measured after 24 hr; assay type: organism-based; settings: in vivo
[31] = Toxicity against Carassius auratus under laboratory conditions assessed as mortality at 10 ppm measured after 24 hr; assay type: organism-based; settings: in vivo
[32] = Toxicity against Carassius auratus under laboratory conditions assessed as mortality at 5 ppm measured after 24 hr; assay type: organism-based; settings: in vivo
[33] = system: Pomacea canaliculata; test: Molluscicidal activity against Pomacea canaliculata under laboratory conditions assessed as mortality at 54 ppm after 24 hr; assay type: functional
[34] = system: Pomacea canaliculata; test: Molluscicidal activity against Pomacea canaliculata under laboratory conditions assessed as mortality at 10 ppm after 24 hr; assay type: functional
[35] = system: Pomacea canaliculata; test: Molluscicidal activity against Pomacea canaliculata under laboratory conditions assessed as mortality at 5 ppm after 24 hr; assay type: functional
[36] = system: Pomacea canaliculata; test: Molluscicidal activity against Pomacea canaliculata infested rice field assessed as mortality at 19 to 27 ppm after 24 hr; assay type: functional, organism-based
[37] = Toxicity against Oreochromis sp. under laboratory conditions assessed as mortality at 54 ppm measured after 96 hr; assay type: organism-based; settings: in vivo
[38] = Toxicity against Oreochromis sp. under laboratory conditions assessed as mortality at 40 ppm measured after 96 hr; assay type: organism-based; settings: in vivo
[39] = Toxicity against Oreochromis sp. under laboratory conditions assessed as mortality at 33 ppm measured after 96 hr; assay type: organism-based; settings: in vivo
[40] = Toxicity against Oreochromis sp. under laboratory conditions assessed as mortality at 23 ppm measured after 96 hr; assay type: organism-based; settings: in vivo
[41] = Toxicity against Oreochromis sp. under laboratory conditions assessed as mortality at 10 ppm measured after 96 hr; assay type: organism-based; settings: in vivo
[42] = Toxicity against Oreochromis sp. under laboratory conditions assessed as mortality at 17 ppm measured after 96 hr; assay type: organism-based; settings: in vivo
[43] = Toxicity against Oreochromis sp. under laboratory conditions assessed as mortality at 5 ppm measured after 96 hr; assay type: organism-based; settings: in vivo

## CC1(C)CC[C@]2(C(=O)O)CC[C@]3(C)C(=CC[C@@H]4[C@@]5(C)CC[C@H](O)C(C)(C)[C@@H]5CC[C@]43C)[C@@H]2C1 [OLEANOLIC_ACID]
[1]
  mortality at 24 h, 54 ppm: 0%
[2]
  mortality at 24 h, 40 ppm: 0%
[3]
  mortality at 33 ppm: 100%
[4]
  mortality at 40 ppm: 100%
[5]
  mortality at 23 ppm: 75%
[6]
  mortality at 17 ppm: 75%
[7]
  mortality at 24 h, 33 ppm: 0%
[8]
  mortality at 24 h, 23 ppm: 0%
[9]
  mortality at 24 h, 10 ppm: 0%
[10]
  mortality at 24 h, 17 ppm: 0%
[11]
  mortality at 24 h, 5 ppm: 0%
[12]
  mortality at 96 h, 54 ppm: 0%
[13]
  mortality at 96 h, 33 ppm: 0%
[14]
  mortality at 96 h, 40 ppm: 0%
[15]
  mortality at 96 h, 23 ppm: 0%
[16]
  mortality at 96 h, 17 ppm: 0%
[17]
  mortality at 96 h, 10 ppm: 0%
[18]
  mortality at 48 h, 54 ppm: 0%
[19]
  mortality at 96 h, 5 ppm: 0%
[20]
  mortality at 48 h, 40 ppm: 0%
[21]
  mortality at 48 h, 33 ppm: 0%
[22]
  mortality at 48 h, 23 ppm: 0%
[23]
  mortality at 48 h, 17 ppm: 0%
[24]
  mortality at 48 h, 5 ppm: 0%
[25]
  mortality at 48 h, 10 ppm: 0%
[26]
  mortality at 24 h, 54 ppm: 0%
[27]
  mortality at 24 h, 40 ppm: 0%
[28]
  mortality at 24 h, 33 ppm: 0%
[29]
  mortality at 24 h, 17 ppm: 0%
[30]
  mortality at 24 h, 23 ppm: 0%
[31]
  mortality at 24 h, 10 ppm: 0%
[32]
  mortality at 24 h, 5 ppm: 0%
[33]
  mortality at 54 ppm: 100%
[34]
  mortality at 10 ppm: 50%
[35]
  mortality at 5 ppm: 0%
[36]
  mortality: Active
[37]
  mortality at 96 h, 54 ppm: 0%
[38]
  mortality at 96 h, 40 ppm: 0%
[39]
  mortality at 96 h, 33 ppm: 0%
[40]
  mortality at 96 h, 23 ppm: 0%
[41]
  mortality at 96 h, 10 ppm: 0%
[42]
  mortality at 96 h, 17 ppm: 0%
[43]
  mortality at 96 h, 5 ppm: 0%

## CC1(C)CC[C@]2(C(=O)O)CC[C@]3(C)C(=CC[C@@H]4[C@@]5(C)CC[C@H](O)[C@@](C)(CO)[C@@H]5CC[C@]43C)[C@@H]2C1 [HEDERAGENIN]
[1]
  mortality at 24 h, 54 ppm: 0%
[2]
  mortality at 24 h, 40 ppm: 0%
[3]
  mortality at 33 ppm: 100%
[4]
  mortality at 40 ppm: 100%
[5]
  mortality at 23 ppm: 75%
[6]
  mortality at 17 ppm: 75%
[7]
  mortality at 24 h, 33 ppm: 0%
[8]
  mortality at 24 h, 23 ppm: 0%
[9]
  mortality at 24 h, 10 ppm: 0%
[10]
  mortality at 24 h, 17 ppm: 0%
[11]
  mortality at 24 h, 5 ppm: 0%
[12]
  mortality at 96 h, 54 ppm: 0%
[13]
  mortality at 96 h, 33 ppm: 0%
[14]
  mortality at 96 h, 40 ppm: 0%
[15]
  mortality at 96 h, 23 ppm: 0%
[16]
  mortality at 96 h, 17 ppm: 0%
[17]
  mortality at 96 h, 10 ppm: 0%
[18]
  mortality at 48 h, 54 ppm: 0%
[19]
  mortality at 96 h, 5 ppm: 0%
[20]
  mortality at 48 h, 40 ppm: 0%
[21]
  mortality at 48 h, 33 ppm: 0%
[22]
  mortality at 48 h, 23 ppm: 0%
[23]
  mortality at 48 h, 17 ppm: 0%
[24]
  mortality at 48 h, 5 ppm: 0%
[25]
  mortality at 48 h, 10 ppm: 0%
[26]
  mortality at 24 h, 54 ppm: 0%
[27]
  mortality at 24 h, 40 ppm: 0%
[28]
  mortality at 24 h, 33 ppm: 0%
[29]
  mortality at 24 h, 17 ppm: 0%
[30]
  mortality at 24 h, 23 ppm: 0%
[31]
  mortality at 24 h, 10 ppm: 0%
[32]
  mortality at 24 h, 5 ppm: 0%
[33]
  mortality at 54 ppm: 100%
[34]
  mortality at 10 ppm: 50%
[35]
  mortality at 5 ppm: 0%
[36]
  mortality: Active
[37]
  mortality at 96 h, 54 ppm: 0%
[38]
  mortality at 96 h, 40 ppm: 0%
[39]
  mortality at 96 h, 33 ppm: 0%
[40]
  mortality at 96 h, 23 ppm: 0%
[41]
  mortality at 96 h, 10 ppm: 0%
[42]
  mortality at 96 h, 17 ppm: 0%
[43]
  mortality at 96 h, 5 ppm: 0%
